Among the data in US10947205B2, “Oxazolidinone compounds and methods of use thereof as antibacterial agents” (priority 2015, dated 2021) are MIC and IC50 values, retold here.

Assay [1] relates to Mycobacterium tuberculosis (Mtb). The assay is described as follows: microbe, parasite or virus in culture. It counts as cell-based, Mycobacterium tuberculosis H37Rv (Mtb-GFP). The settings on record: 168 h.
Assay [2] deals with Staphylococcus aureus (methicillin resistant, MB5393, COL). The assay is described as follows: microbe, parasite or virus in culture. The settings on record: MRSA, 22 h, read-out: MRSA COL MITC95 μM. The assay is classed as cell-based. The method, then: Inhibition of Staphylococcus aureus (methicillin resistant, MB5393, COL) growth was assessed in cation adjusted Mueller Hinton II broth (CAMHB) in 384-well microtiter plates. Bacteria were dispensed into microtiter plates at approximately 5×10^5 actively growing cells in 49 μL volumes per well. Cells were exposed to 2-fold serial dilutions of compounds from 200 μM to 0.195 μM and growth compared to drug-free control. Compound dilutions were prepared in 100% dimethylsulfoxide and added to microtiter plates in 1 μL volumes per well. Full growth control wells contained dimethylsufoxide and bacteria. No growth control wells contained dimethysulfoxide and CAMHB but no bacteria. Growth inhibition was assessed after a 22-hour growth period by measuring optical density using a spectrophotometer. The lowest concentration of test compound required to inhibit 95% of the growth of the bacteria was defined as the MITC95. All studies were done in a BSL2 facility.

Assay [3] deals with mitochondrial protein synthesis in HepG2 cells (COX-I / SDH-A). The assay is described as follows: Mitochondrial protein synthesis assay. The settings on record: Homo sapiens, read-out: MPS IC50_μM. It counts as cell-based. The method, then: (§1) Inhibition of mitochondrial protein synthesis was assessed in HepG2 cells by comparing the levels of two subunits of oxidative phosphorylation enzyme complexes, subunit I of Complex IV (COX-I) and the 70 kDa subunit of Complex II (SDH-A). COX-I is mitochondrial DNA encoded and SDH-A is nuclear DNA encoded. HepG2 cells were seeded in 96-well collagen coated plates at 8,000 cells per well and exposed to 2-fold serial dilutions of compounds from 100 LM to 6.25 μM. Microtiter plates were incubated for approximately 5 replication cycles (4 days) prior to assessment of protein levels using a kit as described by the manufacturer (ab 110217 MitoBiogenesis In Cell ELISA Kit, Abcam, Cambridge, Mass.). Inhibition of mitochondrial protein synthesis was expressed as a ratio of COX-1 to SDH-A levels.
as §1, with “μM” for “LM”

The mark [4] stands for this setting: pH 6.8, read-out: Mtb Cho MITC95_μM.
[5] abbreviates: pH 6.8, read-out: Mtb Glu MITC95_μM.
[6] abbreviates: 96 h, HepG2 cells, 4 days, ratio of COX-1 to SDH-A levels.

≈ marks a conversion by molar mass, not a printed value. Like-named read-outs stand apart in the source and are kept apart here. Some results are limits rather than exact numbers.

On to `C[S+]([O-])c1ccc(-c2ccc(N3C[C@H](CN)OC3=O)cc2F)cc1` (stereo partly drawn) [Example 7, (5S)-5-(aminomethyl)-3-[2-fluoro-4′-(methylsulfinyl)biphenyl-4-yl]-1,3-oxazolidin-2-one], for which the figures for the MIC in assay [1] (setting [4]), in assay [1] (setting [5]) and in assay [2] were 0.09 µM (≈ 0.0314 µg/mL), 0.04 µM (≈ 0.0139 µg/mL) and 200 µM (≈ 69.7 µg/mL), respectively. In assay [3] (setting [6]), the IC50 is greater than 20 µM.

For `NC[C@H]1CN(c2ccc(-c3cccnc3)c(F)c2)C(=O)O1` [Example 24, (5S)-5-(aminomethyl)-3-(3-fluoro-4-pyridin-3-ylphenyl)-1,3-oxazolidin-2-one], the MIC in assay [1] (setting [4]) is 0.09 µM (≈ 0.0259 µg/mL); in assay [1] (setting [5]), 0.04 µM (≈ 0.0115 µg/mL); in assay [2] it was 200 µM (≈ 57.5 µg/mL). Besides, in assay [3] (setting [6]), the IC50 was greater than 20 µM.

For `NCc1ccc(F)c(-c2ccc(N3C[C@H](Cn4ccnn4)OC3=O)cc2F)c1` [Example 55, (5R)-3-[5′-(aminomethyl)-2,2′-difluorobiphenyl-4-yl]-5-(1H-1,2,3-triazol-1-ylmethyl)-1,3-oxazolidin-2-one], the figures for the MIC in assay [1] (setting [4]), in assay [1] (setting [5]) and in assay [2] were 0.19 µM (≈ 0.0732 µg/mL), 0.19 µM (≈ 0.0732 µg/mL) and 50 µM (≈ 19.3 µg/mL), respectively. In assay [3] (setting [6]), the IC50 was greater than 20 µM.

For `NC[C@H]1CN(c2ccc(-c3ccn4ncnc4c3)c(F)c2)C(=O)O1` [Example 8, (5S)-5-(aminomethyl)-3-(3-fluoro-4-[1,2,4]triazolo[1,5-a]pyridin-7-ylphenyl)-1,3-oxazolidin-2-one], the MIC came to 0.04 µM (≈ 0.0131 µg/mL) in assay [1] (setting [4]), 0.04 µM (≈ 0.0131 µg/mL) in assay [1] (setting [5]) and 200 µM (≈ 65.5 µg/mL) in assay [2]. Also, the IC50 in assay [3] (setting [6]) is greater than 20 µM.

For `NC[C@H]1CN(c2ccc(-c3ccc(Cl)nc3)c(F)c2)C(=O)O1` [Example 22, (5S)-5-(aminomethyl)-3-[4-(6-chloropyridin-3-yl)-3-fluorophenyl]-1,3-oxazolidin-2-one], the MIC was determined as 0.19 µM (≈ 0.0611 µg/mL) in assay [1] (setting [4]), 0.04 µM (≈ 0.0129 µg/mL) in assay [1] (setting [5]) and 100 µM (≈ 32.2 µg/mL) in assay [2]. In addition, in assay [3] (setting [6]), the IC50 was greater than 20 µM.

In the case of `NC[C@H]1CN(c2ccc(-c3ccc4nncn4c3)c(F)c2)C(=O)O1` [Example 9, (5S)-5-(aminomethyl)-3-(3-fluoro-4-[1,2,4]triazolo[4,3-a]pyridin-6-ylphenyl)-1,3-oxazolidin-2-one], the MIC in assay [1] (setting [4]) was determined as 0.14 µM (≈ 0.0458 µg/mL); in assay [1] (setting [5]), 0.09 µM (≈ 0.0295 µg/mL); in assay [2], 200 µM (≈ 65.5 µg/mL). The IC50 in assay [3] (setting [6]) was greater than 20 µM.

As for `NC[C@H]1CN(c2cnc(N3CCS(=O)(=O)CC3)c(F)c2)C(=O)O1` [Example 48, (S)-5-(aminomethyl)-3-(6-(1,1-dioxidothiomorpholino)-5-fluoropyridin-3-yl)oxazolidin-2-one], the MIC turned out to be 0.78 µM (≈ 0.269 µg/mL) in assay [1] (setting [4]), 0.39 µM (≈ 0.134 µg/mL) in assay [1] (setting [5]) and 200 µM (≈ 68.9 µg/mL) in assay [2]. Moreover, the IC50 in assay [3] (setting [6]) is greater than 100 µM.

For `CCNC(=O)NC[C@H]1CN(c2ccc(-c3ccc(SC)cc3)c(F)c2)C(=O)O1` [Example 58, (S)-1-ethyl-3-((3-(2-fluoro-4′-(methylthio)-[1,1′-biphenyl]-4-yl)-2-oxooxazolidin-5-yl)methyl)urea], the MIC worked out at 0.19 µM (≈ 0.0767 µg/mL) in assay [1] (setting [4]), 0.58 µM (≈ 0.234 µg/mL) in assay [1] (setting [5]) and 200 µM (≈ 80.7 µg/mL) in assay [2]. Also, the IC50 in assay [3] (HepG2, 96 h) is greater than 20 µM.

Regarding `CSc1ccc(-c2ccc(N3C[C@H](COc4ccon4)OC3=O)cc2F)cc1` [Example 49, (R)-3-(2-fluoro-4′-(methylthio)-[1,1′-biphenyl]-4-yl)-5-((isoxazol-3-yloxy)methyl)oxazolidin-2-one], the MIC in assay [1] (setting [4]) came to 0.58 µM (≈ 0.232 µg/mL); in assay [1] (setting [5]) it was 0.58 µM (≈ 0.232 µg/mL); in assay [2], 200 µM (≈ 80.1 µg/mL). The IC50 in assay [3] (setting [6]) was greater than 20 µM.

On to `N#Cc1cccc(-c2ccc(N3C[C@H](CN)OC3=O)cc2F)c1` [Example 13, 4′-[(5S)-5-(aminomethyl)-2-oxo-1,3-oxazolidin-3-yl]-2′-fluorobiphenyl-3-carbonitrile], for which the MIC was 0.19 µM (≈ 0.0592 µg/mL) in assay [1] (setting [4]), 0.19 µM (≈ 0.0592 µg/mL) in assay [1] (setting [5]) and 200 µM (≈ 62.3 µg/mL) in assay [2]. Also, the IC50 in assay [3] (setting [6]) was greater than 20 µM.
